Source: paper PMC8512870, “Anti-Fungal Hevein-like Peptides Biosynthesized from Quinoa Cleavable Hololectins” (Molecules, 2021)
Where a SMILES comes first, the peptide text is derived from it. Bridges are numbered along the chain shown (N, C = ends).

Columns and labels:
Stability in human serum = type: in vitro ADME; details: RP-HPLC peak area and MALDI-TOF MS, n = 3
Method: (§1) Assessments of thermal, acidic and proteolytic stability were performed as previously described. Purified chenotide cQ2 was incubated at the stated conditions and recommended buffer solution. At each time interval, samples were aliquoted in triplicate and RP-UPLC was performed. The area under the peak was used to determine the amount of chenotide present before and after treatment.

aminopeptidase I = assay: Proteolytic stability, aminopeptidase I; type: in vitro ADME; details: recommended buffer, RP-HPLC peak area and MALDI-TOF MS, n = 3
Method: as §1

pepsin = assay: Proteolytic stability, pepsin; type: in vitro ADME; details: recommended buffer, RP-HPLC peak area and MALDI-TOF MS, n = 3
Method: as §1

[1] = test system: Fusarium oxysporum (CICC 2532); assay: Microbroth dilution anti-fungal assay; type: cell-based; details: spores 1 × 10^5 cells/mL in half-strength potato dextrose broth, 25 °C, 24 h, crystal violet, absorbance 570 nm, listed as chenotide cQ2, read-out: IC50 against Fusarium oxysporum
Method: (§2) The half-maximal inhibitory concentration levels (IC50) of peptides were determined by a microbroth dilution assay. Fungal spores were harvested from a 4-day-old actively growing fungal plate and suspended in half-strength potato dextrose broth. Spore suspensions (1 × 10^5 cells/mL) were mixed with peptides at varying concentrations in 96-well microplates and incubated at 25 °C for 24 h. The cells were then fixed with 100% methanol for 15 min and stained for 45 min with crystal violet dye. Excess dye was removed with MilliQ water. Elution was performed using 1:1 (v/v) ethanol/0.1 N HCl. The absorbance was measured at 570 nm.

[2] = test system: Curvularia lunata (CICC 40301); assay: Microbroth dilution anti-fungal assay; type: cell-based; details: spores 1 × 10^5 cells/mL in half-strength potato dextrose broth, 25 °C, 24 h, crystal violet, absorbance 570 nm, listed as chenotide cQ2, read-out: IC50 against Curvularia lunata
Method: as §2

[3] = test system: Alternaria alternata (CICC 2465); assay: Microbroth dilution anti-fungal assay; type: cell-based; details: spores 1 × 10^5 cells/mL in half-strength potato dextrose broth, 25 °C, 24 h, crystal violet, absorbance 570 nm, listed as chenotide cQ2, read-out: IC50 against Alternaria alternata
Method: as §2

[4] = test system: Rhizoctonia solani (CICC 40259); assay: Microbroth dilution anti-fungal assay; type: cell-based; details: spores 1 × 10^5 cells/mL in half-strength potato dextrose broth, 25 °C, 24 h, crystal violet, absorbance 570 nm, listed as chenotide cQ2, read-out: IC50 against Rhizoctonia solani
Method: as §2

Stability in horse serum = type: in vitro ADME; details: RP-HPLC peak area and MALDI-TOF MS, n = 3
Method: as §1

For CC(C)C[C@@H]1NC(=O)CNC(=O)CNC(=O)[C@@H]2CCCN2C(=O)[C@@H]2CSSC[C@@H]3NC(=O)[C@H](Cc4ccccc4)NC(=O)CNC(=O)[C@H](Cc4ccccc4)NC(=O)[C@H](CCCCN)NC(=O)[C@H](CO)NC(=O)[C@H](CSSC[C@H](NC(=O)[C@H](CCC(=O)O)NC(=O)CNC(=O)[C@H](C)N)C(=O)N[C@@H](C(C)C)C(=O)N[C@@H](CCCNC(=N)N)C(=O)NCC(=O)N[C@@H](CCCNC(=N)N)C(=O)N2)NC(=O)[C@H](CSSC[C@@H](C(=O)NCC(=O)NCC(=O)O)NC(=O)[C@H](Cc2ccc(O)cc2)NC(=O)[C@H](C)NC(=O)[C@@H]2CCCN2C(=O)CNC(=O)[C@H](CO)NC(=O)CNC3=O)NC1=O [cQ2] (H-AGECVRGRCPGGLCCSKFGFCGSGPAYCGG-OH; disulfide 4-15, 9-21, 14-28), the “Peptide retained after human serum treatment” value (Stability in human serum) was greater than 80%, the “Peptide retained after aminopeptidase I treatment” value (aminopeptidase I) was greater than 80% and the “Peptide retained after pepsin treatment” value (pepsin) was greater than 80%. It also gave an IC50 [1] of roughly 0.3 µM, an IC50 [2] of roughly 5 µM and an IC50 [3] of roughly 9 µM. The IC50 [4] was roughly 3 µM and the “Peptide retained after horse serum treatment” value (Stability in horse serum) was greater than 80%.
